Experimental data: patent US11286281B2, “Homodetic cyclic peptides targeting alpha-4-beta-7 integrin” (priority 2017, dated 2022)
Numbered stars: 1 amine (or outer) side, 2 acyl side, 3 side chain; on linkers, the order of the positions; unused ones are H or OH. Square brackets hold non-standard residues; d marks the D form. Peptide text beside a SMILES is read from it. X1 = O=C(c1ccc(-c2ccc(N3CCNCC3)cc2)c(CN[*:1])c1)[*:2]

Molecular target: T1, integrin α4β7 (Mus musculus, UniProt P26011+Q00651)
T1 construct: host or cells: TK-1 mouse T-cell lymphoma cells
T1 sequence (Q00651 41-1039): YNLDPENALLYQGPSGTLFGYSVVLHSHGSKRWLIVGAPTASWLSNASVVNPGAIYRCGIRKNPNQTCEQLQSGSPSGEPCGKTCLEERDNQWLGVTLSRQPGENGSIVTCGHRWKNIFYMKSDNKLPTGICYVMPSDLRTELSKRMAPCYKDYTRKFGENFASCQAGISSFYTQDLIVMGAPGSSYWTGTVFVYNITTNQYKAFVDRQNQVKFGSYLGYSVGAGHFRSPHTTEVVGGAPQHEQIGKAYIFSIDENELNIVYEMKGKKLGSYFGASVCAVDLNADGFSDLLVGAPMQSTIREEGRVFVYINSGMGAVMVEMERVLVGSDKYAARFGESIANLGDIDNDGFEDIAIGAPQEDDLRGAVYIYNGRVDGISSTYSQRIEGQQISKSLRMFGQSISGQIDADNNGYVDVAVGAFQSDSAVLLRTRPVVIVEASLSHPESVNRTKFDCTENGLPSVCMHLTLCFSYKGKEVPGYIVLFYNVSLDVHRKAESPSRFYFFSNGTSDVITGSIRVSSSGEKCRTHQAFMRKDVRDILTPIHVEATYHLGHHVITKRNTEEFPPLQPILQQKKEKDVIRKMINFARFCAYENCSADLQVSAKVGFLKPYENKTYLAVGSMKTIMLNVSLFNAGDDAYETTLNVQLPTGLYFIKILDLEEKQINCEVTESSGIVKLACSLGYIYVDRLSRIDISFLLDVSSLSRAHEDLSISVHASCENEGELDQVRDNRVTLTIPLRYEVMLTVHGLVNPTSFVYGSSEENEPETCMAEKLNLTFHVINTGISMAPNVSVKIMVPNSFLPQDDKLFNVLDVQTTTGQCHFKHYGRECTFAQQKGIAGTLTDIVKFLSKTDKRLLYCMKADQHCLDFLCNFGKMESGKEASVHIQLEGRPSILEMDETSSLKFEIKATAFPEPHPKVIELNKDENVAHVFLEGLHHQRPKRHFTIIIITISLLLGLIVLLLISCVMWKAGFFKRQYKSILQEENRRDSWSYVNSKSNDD
T1 sequence (P26011 20-806): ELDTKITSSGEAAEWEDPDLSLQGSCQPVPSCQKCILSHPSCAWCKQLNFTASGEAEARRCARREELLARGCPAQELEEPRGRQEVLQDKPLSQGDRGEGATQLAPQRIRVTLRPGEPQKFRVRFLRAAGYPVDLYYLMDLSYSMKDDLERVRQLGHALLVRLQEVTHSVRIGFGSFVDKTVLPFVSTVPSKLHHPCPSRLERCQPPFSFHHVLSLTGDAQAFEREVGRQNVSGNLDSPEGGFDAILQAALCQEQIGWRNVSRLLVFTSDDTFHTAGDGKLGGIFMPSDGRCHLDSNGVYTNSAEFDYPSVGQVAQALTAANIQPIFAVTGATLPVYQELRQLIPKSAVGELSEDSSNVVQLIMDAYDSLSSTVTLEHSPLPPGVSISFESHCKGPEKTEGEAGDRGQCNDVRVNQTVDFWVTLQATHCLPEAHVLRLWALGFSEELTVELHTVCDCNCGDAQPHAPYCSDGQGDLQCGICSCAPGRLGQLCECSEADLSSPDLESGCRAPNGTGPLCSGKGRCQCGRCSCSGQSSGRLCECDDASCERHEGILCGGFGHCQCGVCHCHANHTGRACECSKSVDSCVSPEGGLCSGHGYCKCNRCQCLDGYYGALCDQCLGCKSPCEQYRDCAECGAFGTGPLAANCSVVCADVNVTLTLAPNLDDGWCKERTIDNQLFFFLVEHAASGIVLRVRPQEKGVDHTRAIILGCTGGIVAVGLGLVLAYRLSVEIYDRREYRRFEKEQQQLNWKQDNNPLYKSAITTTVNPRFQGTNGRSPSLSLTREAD
Assay: Integrin α4β7-MAdCAM mouse cell adhesion assay (TK-1 cells)
Assay type: cell-based
Details: for IC50: TK-1 cells, read-out: IC50 in mouse α4β7-containing cell adhesion
Protocol: TK-1 mouse T-cells lymphoma cell lines (ATCC CRL2396) were cultured in RPMI 1640 medium (HyClone SH30027.1) supplemented with 10% FBS (Seradigm) and 1% Penicillin-Streptomycin. A 96-well plate (Costar, 3603) was coated with 100 μl/well of recombinant mouse MAdCAM-1 Fc Chimera (R&D Systems, 993-MC-050) solution at 0.25 μg/ml in coating buffer (50 mM sodium carbonate, pH 9.6). The plate was incubated overnight at 4° C. and washed twice with 150 μl per well wash buffer (0.05% Tween 20 in PBS), blocked with 250 μl per well blocking buffer (1% non-fat dry milk in PBS), and incubated for 2 hours at room temperature. TK-1 cells were resuspended at 10 million cells/ml in PBS containing […] and incubated at 37° C. for 30 min in a 50 ml tube. […] The plate was emptied by inverting and blotting on paper towels and washed manually twice with PBS. 100 μl PBS was then added to each well. The fluorescence was read (Ex495/Em515) using a plate reader (Tecan Infinite 1000). To calculate the dose response, the fluorescence value of control wells not containing cells was subtracted from each test well.

Structure (SMILES)	fold difference in IC50 between mouse α4β7-containing and human α4β7-containing cell adhesion (TK-1 versus RPMI8866, weaker in mouse) [fold]	IC50 [nM]
CC(C)C[C@@H]1NC(=O)c2ccc(-c3ccc(N4CCNCC4)cc3)c(c2)CNC(=O)[C@@H]2CCCN2C(=O)[C@H](C)NC(=O)[C@H]([C@@H](C)O)NC(=O)[C@H](CC(=O)O)NC1=O [Compound 8] (cyclo(P[X1]LDTA))	~10	
CC(C)C[C@@H]1NC(=O)c2ccc(-c3ccc(N4CCN(C(=O)COCC(=O)N5CCN(c6ccc(-c7ccc8cc7CNC(=O)[C@@H]7CCCN7C(=O)[C@H](C)NC(=O)[C@H]([C@@H](C)O)NC(=O)[C@H](CC(=O)O)NC(=O)[C@H](CC(C)C)NC8=O)cc6)CC5)CC4)cc3)c(c2)CNC(=O)[C@@H]2CCCN2C(=O)[C@H](C)NC(=O)[C@H]([C@@H](C)O)NC(=O)[C@H](CC(=O)O)NC1=O [Compound 17]		~97
CC(C)C[C@@H]1NC(=O)c2ccc(-c3ccc(N4CCN(Cc5cccc(CN6CCN(c7ccc(-c8ccc9cc8CNC(=O)[C@@H]8CCCN8C(=O)[C@H](C)NC(=O)[C@H]([C@@H](C)O)NC(=O)[C@H](CC(=O)O)NC(=O)[C@H](CC(C)C)NC9=O)cc7)CC6)c5)CC4)cc3)c(c2)CNC(=O)[C@@H]2CCCN2C(=O)[C@H](C)NC(=O)[C@H]([C@@H](C)O)NC(=O)[C@H](CC(=O)O)NC1=O [Compound 18]		~68
